Drawing on publication PMC6038383, “Crystal structure of the spliceosomal DEAH-box ATPase Prp2” (Acta Crystallographica. Section D, Structural Biology, 2018), this text covers Kd for 1 compound.

The assay addresses T1, Prp2 from C. thermophilum (ctPrp2), residues 270-921 (Thermochaetoides thermophila, UniProt G0SEG4).
T1 construct: gene CTHT_0063660; N-terminally truncated residues 270-921, GST tag cleaved with PreScission protease, expressed in E. coli Rosetta 2 (DE3)
T1 sequence (G0SEG4 270-921): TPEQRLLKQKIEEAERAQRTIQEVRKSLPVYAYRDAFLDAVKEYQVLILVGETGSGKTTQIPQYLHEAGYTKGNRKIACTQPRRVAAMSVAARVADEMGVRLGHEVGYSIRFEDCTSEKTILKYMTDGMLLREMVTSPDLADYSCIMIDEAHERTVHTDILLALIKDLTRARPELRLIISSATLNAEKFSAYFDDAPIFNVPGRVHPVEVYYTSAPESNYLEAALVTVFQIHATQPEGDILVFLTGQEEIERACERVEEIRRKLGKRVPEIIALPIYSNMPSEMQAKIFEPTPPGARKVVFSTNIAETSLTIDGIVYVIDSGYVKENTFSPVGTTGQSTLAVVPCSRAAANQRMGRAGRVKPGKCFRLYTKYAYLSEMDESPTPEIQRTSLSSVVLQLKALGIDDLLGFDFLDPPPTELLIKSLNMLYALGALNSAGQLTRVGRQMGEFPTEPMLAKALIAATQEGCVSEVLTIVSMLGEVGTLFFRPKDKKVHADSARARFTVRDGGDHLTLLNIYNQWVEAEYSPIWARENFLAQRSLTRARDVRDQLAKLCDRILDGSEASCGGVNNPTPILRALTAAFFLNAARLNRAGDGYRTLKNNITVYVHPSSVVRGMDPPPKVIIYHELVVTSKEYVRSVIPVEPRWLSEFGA
Description: isothermal titration calorimetry. The format is binding.

For orientation: Kd means a measure of binding affinity in units of concentration. A higher Kd goes with a looser complex.

Consider `Nc1ncnc2c1ncn2[C@@H]1O[C@H](COP(=O)(O)OP(=O)(O)O)[C@@H](O)[C@H]1O` [ADP], for which binding was characterised by a dissociation constant (Kd) of 179 nM.
